Assay results from US20060270591A1, “Androgen receptor coregulators” (priority 2002, published 2006).

Assays:
[1] = system: AR; test: Immunocytofluorescence, semi-quantitative nuclear AR staining in COS-1 cells; assay type: cell-based; details: 10 nM DHT, p<0.0005
Description: 415. COS-1 cells were seeded on two-well Labtek II slides (Nalge) 24 hours before transfection. Two micrograms of DNA per 10^5 cell was transfected with the AR, with or without full length ARA70 (ARA70-FL) using FuGENE6 transfection reagent (Roche). […] Immunostaining was performed by incubation with anti-AR polyclonal antibody (NH27) or anti-ARA70 mouse monoclonal antibody (CC70), followed by incubation with either fluorescence-conjugated goat anti-rabbit or anti-mouse antibodies (ICN). The red signal represents the AR and the green signal represents ARA70.
416. Three hundred cells with normal morphologies and clear AR nuclear translocation were scored for AR staining using a fluorescence microscope. Cells were scored on a scale of one to five, with one representing the lowest AR staining intensity above the background level. The cells were then separated into two groups based on the presence or absence of ARA70.
417. The mean AR staining intensity and standard deviation were then calculated for the ARA70 negative and positive populations. Using […], a two sample t-test (assuming unequal variances) was then performed to determine if the difference in the mean AR staining intensities in the two populations was statistically significant (α=0.05).

[2] = system: AR; test: AR transactivation dual-luciferase assay with supervillin (Example 6); assay type: cell-based, human
Description: (§1) In AR transactivation activity assays, transfections were performed using SuperFect (Qiagen, Chatsworth, Calif.) following protocols described in manual provided by Qiagen. Briefly, cells were plated on 35 mm dishes and after 24 h were transfected using the SuperFect kit. The total DNA amount was adjusted to 2 μg with pSG5 or pEGFP vectors. The medium was changed to DMEM with 10% CD-FBS 2 h after transfection. After 24 h, the DMEM with 10% CD-FBS was changed again, and the cells were treated with various steroids. Cells were harvested after 24 h for dual-luciferase assay as described in protocol provided by Promega. At least three independent experiments were carried out in each case.

[3] = system: p27^KIP1; test: Western blot of p27KIP1 in PC-3(AR2) cells; assay type: cell-based, human; details: 10 nM DHT
Description: 41. […] (A) C2C12, COS-1, DU145 and PC-3 cell lines were co-transfected with 30 ng pSG5-AR, 0.5 μg MMTV-Luc, 1 ng pRL-SV40, various amounts of pSG5-bSV as indicated, and adjusted to total amount of 2 μg DNA with pSG5. The assay method was the same as FIG. 2. After measuring the luciferase activity, values relative to lane 1 were calculated. Results are the mean±S.D. of three independent experiments. (B) PC-3 was co-transfected with 30 ng pSG5-AR, 1.5 μg pSG5-bSV, 1 ng pRL-SV40, and 0.5 μg reporter gene as indicated by using SuperFect. […] (C) PC-3(AR2) cell line was transfected with EGFP or EGFP-bSV expressing vector using SuperFect. […] Proteins extracted from cells were loaded on 15% SDS-PAGE and analyzed by western blotting. The intensity of each p27 band was quantified and normalized with control protein which is a non-specific band pick up by the antibody in the same blot. The relative intensities to lane 1 were calculated.
478. Protein samples extracted from the cell were separated on 15% SDS-PAGE and transferred to nitrocellulose membranes. Membranes were incubated 1 h with 5% non-fat milk in TBST at room temperature, followed by the antibodies against p27^(KIP1) (Santa Cruz), followed by AP conjugated goat-antimouse antibody. Blots were developed using the AP developing reagent from Bio-Rad. Band intensity was quantitated by Collage® image analysis software (Fotodyne Inc.).

[4] = target: T1, ER-α (Homo sapiens, UniProt P03372); test: ER-α transactivation reporter assay (ERE-Luc) with SV; assay type: cell-based
T1 sequence (P03372 1-595): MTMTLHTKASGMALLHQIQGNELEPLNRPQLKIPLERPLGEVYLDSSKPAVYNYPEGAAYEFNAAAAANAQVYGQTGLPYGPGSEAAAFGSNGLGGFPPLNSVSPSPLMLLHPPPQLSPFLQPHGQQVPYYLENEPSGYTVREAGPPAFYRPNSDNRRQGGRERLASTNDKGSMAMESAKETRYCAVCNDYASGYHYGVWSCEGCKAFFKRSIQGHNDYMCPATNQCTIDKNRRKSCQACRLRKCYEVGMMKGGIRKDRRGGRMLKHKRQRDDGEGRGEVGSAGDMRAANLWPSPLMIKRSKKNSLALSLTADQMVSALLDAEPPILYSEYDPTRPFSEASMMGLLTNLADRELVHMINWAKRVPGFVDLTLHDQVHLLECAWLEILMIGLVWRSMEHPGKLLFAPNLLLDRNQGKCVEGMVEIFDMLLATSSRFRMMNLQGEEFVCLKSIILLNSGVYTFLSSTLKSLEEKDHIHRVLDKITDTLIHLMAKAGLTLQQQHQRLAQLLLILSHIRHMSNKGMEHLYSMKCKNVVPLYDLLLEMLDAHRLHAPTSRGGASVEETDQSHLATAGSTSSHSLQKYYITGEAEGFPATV
Description: 42. […] (A) The interaction of SV with AR, GR, PPAR-γ and ER-α is tested in mammalian two-hybrid assay. One μg plasmids expressing Gal4(DBD)-AR, GR, PPAR-γ or ER-α was co-transfected with 4 μg plasmids expressing VP16 or VP16-SVn to COS-1 cells. […] The assay method was the same as described in FIG. 29. Relative activities of ligand treatment to EtOH treatment are shown. (B) The coactivation function of SV in different receptors was assayed using reporter gene study. MMTV-Luc, PPRE-Luc, ERE-Luc are the reporter genes for AR, GR, PPAR-γ, and ER-α respectively. Lanes 1, 5, 9 and 13 are regarded as 1 fold in each panel.
as §1, with “475. In” for “In”

Sequence of AR (P10275 with tags, fused parts or gaps DEL79-80/DUP473-473): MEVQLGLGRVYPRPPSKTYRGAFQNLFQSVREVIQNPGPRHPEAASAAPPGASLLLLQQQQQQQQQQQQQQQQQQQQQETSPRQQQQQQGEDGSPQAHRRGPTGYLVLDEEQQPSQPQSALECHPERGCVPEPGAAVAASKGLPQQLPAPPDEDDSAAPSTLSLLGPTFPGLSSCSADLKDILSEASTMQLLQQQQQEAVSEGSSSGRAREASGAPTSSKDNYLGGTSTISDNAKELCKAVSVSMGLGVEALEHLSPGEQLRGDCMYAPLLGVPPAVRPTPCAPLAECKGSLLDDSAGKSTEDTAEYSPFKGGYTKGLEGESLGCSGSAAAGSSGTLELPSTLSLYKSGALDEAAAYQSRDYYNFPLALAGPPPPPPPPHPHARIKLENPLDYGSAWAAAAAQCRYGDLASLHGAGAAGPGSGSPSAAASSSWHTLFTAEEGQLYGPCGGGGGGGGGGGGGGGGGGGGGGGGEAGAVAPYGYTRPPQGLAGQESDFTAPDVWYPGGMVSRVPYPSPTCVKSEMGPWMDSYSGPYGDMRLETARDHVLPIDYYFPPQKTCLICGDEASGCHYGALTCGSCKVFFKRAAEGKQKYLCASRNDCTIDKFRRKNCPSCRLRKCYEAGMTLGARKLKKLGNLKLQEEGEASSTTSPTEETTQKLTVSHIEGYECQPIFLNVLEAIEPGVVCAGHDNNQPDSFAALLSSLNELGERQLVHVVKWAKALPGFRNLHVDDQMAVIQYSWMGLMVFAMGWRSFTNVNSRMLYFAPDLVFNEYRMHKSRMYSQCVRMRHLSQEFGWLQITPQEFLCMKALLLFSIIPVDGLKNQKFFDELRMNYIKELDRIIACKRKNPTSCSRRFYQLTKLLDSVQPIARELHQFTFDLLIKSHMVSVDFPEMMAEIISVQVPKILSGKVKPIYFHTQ

Substance | nuclear AR staining intensity [1] | enhancement of AR transactivation ([2]; C2C12 muscle cells, bSV:AR plasmids 25:1 and 50:1, DHT) | AR transactivation with EGFP-bSV construct ([2]; COS-1 cells, 10 nM DHT, MMTV-Luc) [fold] | effect on Adiol induced AR transactivation ([2]; COS-1 cells, 10 nM steroid) | effect on E2- or HF-induced AR transactivation ([2]; COS-1 cells, 10 nM steroid) | effect on T and DHT induced AR transactivation ([2]; COS-1 cells, 10 nM steroid) | p27^(KIP1) protein expression [3] | effect on the transactivation of ER-α [4]
ARA70: ligand-enhanced AR coregulator, full length ARA70 | significantly enhances nuclear AR staining intensity | – | – | – | – | – | – | –
SV: supervillin, 205 kDa actin binding protein; bovine SV (a.a. 1-1792) used in reporter assays | – | 3-8 fold | 132 | slightly enhances | marginal effect | significantly enhances | further enhanced p27^(KIP1) protein expression | little effect
